Assay results from patent US20170050934A1 (priority 2014, published 2017).

How the values were obtained:
[1] = system: Botrytis cinerea AARF-033; assay: Antimicrobial activity test against rice Botrytis cinerea (conidia, 96 well microplate); type: cell-based; details: AARF033, 96 h, conidia 1×10^4 conidia/ml in potato-glucose broth, 25° C. for 4 days
Excerpt: Test specimen (compound (A2-1) and compound (A5-1)) and reference agents i.e. iprodione and captan, were, respectively, dissolved in dimethyl sulfoxide (DMSO) and adjusted to 10,000 ppm. To a flat bottom 96 well microplate, 2 μ/ml of each test solution was dispensed, and then, 198 μ/ml of conidia of rice Botrytis cinerea (Botrytis cinerea AARF-033) cultured on a potato-glucose agar medium, and suspended in a potato-glucose broth and adjusted to 1×10^4 conidia/ml, were dispensed, followed by stirring by a micro mixer. At that time, the concentration of each test specimen and reference agent, was 100 ppm. Thereafter, culturing under standing-still condition was conducted at 25° C. for 4 days, whereby the antimicrobial activities were evaluated.

[2] = system: rice blast fungus (Magnaporthe grisea); assay: microbe, parasite or virus in culture; type: cell-based; details: Pyricularia oryzae, read-out: antimicrobial activity, inhibition of Magnaporthe grisea

Row | Structure (SMILES) | inhibition at 100 ppm [1] [%] | inhibition at 100 ppm [2] [%]
1 | CC(C)NC(=O)N1CC(=O)N(c2cc(Cl)cc(Cl)c2)C1=O [Iprodione, iprodione] | ≥ 95 | 
2 | CCOC(=O)c1cnc(-c2ccccc2)nc1C(F)(OC(F)(F)C(F)(F)C(F)(F)F)C(F)(F)F (centres unmarked) [Compound A2-1] | ≥ 95 | ≥ 95
3 | CO/N=C(/C1=NOCCO1)c1ccccc1Oc1ncnc(Oc2ccccc2Cl)c1F [Fluoxastrobin, fluoxastrobin] |  | ≥ 95
4 | O=C1C2CC=CCC2C(=O)N1SC(Cl)(Cl)Cl (centres unmarked) [Captan, captan] | ≥ 95 | 
5 | CCCCNC(=O)n1c(NC(=O)OC)nc2ccccc21 [Benomyl, benomyl] |  | ≥ 95
6 | Nc1cnc(-c2ccccc2)nc1C(F)(F)OC(F)(F)C(F)(F)OC(F)(F)C(F)(F)F [Compound A5-1] | ≥ 95 | ≥ 95
